Each structure is given as a SMILES string.

The test system of assay [1] is Salmonidae. Put plainly: Binding affinity to Salmon testes DNA.
For assay [2], the system named is Salmonidae. Description: Effect on Salmon testes DNA stabilization assessed as thermal denaturation at 100 uM. The assay is classed as functional.

Regarding `O=C(NCCCN1CCOCC1)c1cccc2c1-c1ccccc1C2=O`, in the assay on Salmonidae [1], the Ka is 2.3 10^4/M. Also, the thermal shift (ΔTm) with Salmonidae [2] was -0.8 °C.
For `CN(C)CCCNC(=O)c1cccc2c1-c1ccccc1C2=O`, in that order: 3.1 10^4/M and 2.1 °C.
Take `O=C(NCCCCO)c1cccc2c1-c1ccccc1C2=O`: the shift in melting temperature (ΔTm) with Salmonidae [2] was -0.8 °C.
For `CN(C)CCNC(=O)c1cccc2c1-c1ccccc1C2=O`, the Ka with Salmonidae [1] was 3.3 10^3/M. Further, the ΔTm in the assay on Salmonidae [2] stood at 0.2 °C.
For the molecule `CC(O)CNC(=O)c1cccc2c1-c1ccccc1C2=O` (stereo unspecified), the shift in melting temperature (ΔTm) with Salmonidae [2] was determined as 2.1 °C.
For `O=C(NCCCO)c1cccc2c1-c1ccccc1C2=O`, the Ka in the assay on Salmonidae [1] is 8.4 10^3/M. In addition, in the assay on Salmonidae [2], the ΔTm amounted to 3.1 °C.
Take `O=C(NCCO)c1cccc2c1-c1ccccc1C2=O`: the ΔTm with Salmonidae [2] turned out to be 1.9 °C.
Regarding `O=C(NCCN1CCOCC1)c1cccc2c1-c1ccccc1C2=O`, in the assay with Salmonidae [1], the Ka was 1.6 10^5/M. The thermal shift (ΔTm) in the assay on Salmonidae [2] is 1.2 °C.
On to `O=C(NCCOCCO)c1cccc2c1-c1ccccc1C2=O`, for which, in the assay on Salmonidae [2], the thermal shift (ΔTm) is 0.2 °C.
For the molecule `CCN(CC)CCNC(=O)c1cccc2c1-c1ccccc1C2=O`, the Ka in the assay on Salmonidae [1] is 7.8 10^4/M. Further, in the assay on Salmonidae [2], the shift in melting temperature (ΔTm) is 2.1 °C.

One may read the ΔTm as the shift of the melting midpoint relative to a reference.

The record behind these values is ChEMBL document CHEMBL1147214, “Tetraplex DNA specific ligands based on the fluorenone-carboxamide scaffold” (Bioorg Med Chem Lett, 2007).
